From publication PMC4735493, “The Biological Effects of Bilirubin Photoisomers” (PLoS ONE, 2016)
Read-outs that look alike come from different tables or passages of the source. Marks after values point to notes of the source that are not given here. Each block holds one molecule with its values, some of them ahead of it.

How the values were obtained:
[1] = target: T1, human serum albumin (HSA) (Homo sapiens, UniProt P02768); test: Binding constant by fluorescence quenching of intrinsic Trp fluorescence
Protocol: Thus, the binding constant for bilirubin and lumirubin to HSA was determined by quenching of the intrinsic Trp fluorescence. […] F0 was the fluorescence of HSA without a quencher, F the fluorescence of HSA with a quencher, CL was the quencher concentration, and CP was the concentration of HSA. The effect of cooperative binding of lumirubin and bilirubin was also studied, and the results were compared to the Ka obtained in the systems with biliverdin and gossypol, which served as a displacing agent of bilirubin from HSA [31, 32].

[2] = system: SH-SY5Y human neuroblastoma cell line; test: Cell viability (CellTiter-Glo and MTT); assay type: cell-based
Protocol: The SH-SY5Y human neuroblastoma cell line was used for the in vitro studies (ATCC, Manassas, VA, USA). Authentication of the cell line was confirmed by independent laboratory (Generi Biotech, Czech Republic). The cells were tested for Mycoplasma contamination using the MycoAlert luminescence test (Lonza, Switzerland). Cells were cultured in a mixture of MEM Eagle and Ham’s F12 media (1:1, v/v), containing 15% of fetal bovine serum, in 75 cm^2 culture flasks, at 37°C, in a 5% CO2 atmosphere. For functional tests, cells were seeded at a concentration of 50,000 cells per 1 cm^2.
The effect of bilirubin (24 μM), pure bilirubin PI (5%, 15%, and 30% of bilirubin PI in complete culture media), and the combination of bilirubin with bilirubin PI on cell viability was analyzed by both MTT (Sigma, Germany) as well as by luminescent CellTiter-Glo (Promega, USA) tests, using a Sunrise Microplate Reader (Tecan, Austria) and Synergy 2 Multi-mode Microplate Reader (BioTek, USA), respectively.

HMOX1 = test: Gene expression by real-time PCR: HMOX1; assay type: cell-based, human; conditions: SH-SY5Y; bilirubin 24 μM, PI 15%; median (IQ range), n = 5; 1 hr exposure
Protocol: (§1) Briefly, total RNA was isolated in TriReagent (Sigma-Aldrich, St Louis, MO, USA) according to the manufacture's protocol and stored at -80°C until analysis. RNA quantity and purity were evaluated spectrophotometrically at 260 nm, and RNA integrity was evaluated by agarose gel electrophoresis. Retrotranscription of total RNA (1 μg) was performed with an iScript cDNA Synthesis Kit (Bio-Rad Laboratories, Hercules, CA, USA) according to the manufacturer's instructions. The final cDNA was conserved at -20°C until used. The primers for the targeted genes and the two housekeeping genes [hypoxanthine-guanine phosphoribosyltransferase (Hprt1) and glyceraldehydes 3-phosphate dehydrogenase (Gapdh)] were designed using Beacon Designer 2.0 software (PREMIER Biosoft International, Palo Alto, CA, USA). The quantitative analysis of gene expression was performed by real-time PCR. […] The relative quantification was made using iCycler iQ software, version 3.1 (Bio-Rad Laboratories, Hercules, CA, USA), by the ΔΔCt method, taking into account the efficiencies of the individual's genes, and normalizing the results to the two housekeeping genes. […] The results are expressed as the mean ± SD.

HMOX2 = test: Gene expression by real-time PCR: HMOX2; assay type: cell-based, human; conditions: SH-SY5Y; bilirubin 24 μM, PI 15%; median (IQ range), n = 5; 1 hr exposure
Protocol: as §1

BLVRA = test: Gene expression by real-time PCR: BLVRA; assay type: cell-based, human; conditions: SH-SY5Y; bilirubin 24 μM, PI 15%; median (IQ range), n = 5; 1 hr exposure
Protocol: as §1

MRP1 = test: Gene expression by real-time PCR: MRP1; assay type: cell-based, human; conditions: SH-SY5Y; bilirubin 24 μM, PI 15%; median (IQ range), n = 5
Protocol: as §1, with “The effect of bilirubin and bilirubin PI (24 μM bilirubin (corresponding to 140 nM Bf), 15% bilirubin PI, and a mixture of bilirubin and 15% PI) on the expression of genes involved in heme catabolism and in the regulation of the cell cycle (Table 1) was investigated in SH-SY5Y cells exposed to pigments for 1 and 24 hrs, respectively. Briefly,” for “Briefly,”, “The primers for the targeted genes and the two housekeeping genes [hypoxanthine-guanine phosphoribosyltransferase (Hprt1) and glyceraldehydes 3-phosphate dehydrogenase (Gapdh)] were designed using Beacon Designer 2.0 software (PREMIER Biosoft International, Palo Alto, CA, USA).” left out

MDR1 = test: Gene expression by real-time PCR: MDR1; assay type: cell-based, human; conditions: SH-SY5Y; bilirubin 24 μM, PI 15%; median (IQ range), n = 5
Protocol: as §1, with “The effect of bilirubin and bilirubin PI (24 μM bilirubin (corresponding to 140 nM Bf), 15% bilirubin PI, and a mixture of bilirubin and 15% PI) on the expression of genes involved in heme catabolism and in the regulation of the cell cycle (Table 1) was investigated in SH-SY5Y cells exposed to pigments for 1 and 24 hrs, respectively. Briefly,” for “Briefly,”, “The primers for the targeted genes and the two housekeeping genes [hypoxanthine-guanine phosphoribosyltransferase (Hprt1) and glyceraldehydes 3-phosphate dehydrogenase (Gapdh)] were designed using Beacon Designer 2.0 software (PREMIER Biosoft International, Palo Alto, CA, USA).” left out

Cyclin D1 = test: Gene expression by real-time PCR: Cyclin D1; assay type: cell-based, human; conditions: SH-SY5Y; bilirubin 24 μM, PI 15%; median (IQ range), n = 5
Protocol: as §1

Cyclin E = test: Gene expression by real-time PCR: Cyclin E; assay type: cell-based, human; conditions: SH-SY5Y; bilirubin 24 μM, PI 15%; median (IQ range), n = 5
Protocol: as §1

heme oxygenase (HMOX) = test: Heme oxygenase activity determination (CO by gas chromatography); assay type: cell-based, human; conditions: SH-SY5Y; data not shown
Protocol: The activity of heme oxygenase (HMOX) was measured as described previously. In brief, culture media harvested from SH-SY5Y batches were added to CO-free, septum-sealed vials. CO released into the vial headspace was quantified using gas chromatography with a reduction gas analyzer (Peak Laboratories, Mountain View, CA, USA).

SH-SY5Y cells = test: Cell cycle phase by flow cytometry (propidium iodide); assay type: cell-based, human; conditions: bilirubin 24 μM, PI 15%, 1 and 24 hrs exposure, data not shown
Protocol: After centrifugation (310 x g; RT; 6 min), the sediments were re-suspended in 1 ml of staining solution in PBS containing 0.1% v/v Triton X-100, 20 μg/ml propidium iodide (PI), and 0.2 mg/ml DNAse free RNaseA. Samples were incubated in the dark for 30 min at RT, and subjected to FACS analysis (cytometer BD FACSCalibur TM; and CellQuest software, BD Biosciences, San Jose, CA). Data were collected for 10,000 events per sample.

[3] = Stability of pigments in the incubation medium by HPLC
Protocol: The HPLC analyses were performed using an Agilent 1200 system (CA, USA) with a diode-array detector. […] The mobile phase consisted of 0.1 M di-n-octylamine acetate in methanol and water; the stationary phase was represented by a Poroshell 120, SB-C18 column (4.6 x 100 mm, 2.7 μm; Agilent, CA, USA). Samples were prepared by mixing 20 μl of bilirubin solution with 180 μl of ice-cold 0.1 M di-n-octylamine acetate in methanol, then vortexed and centrifuged to eliminate proteins. Twenty μl of the prepared sample was injected onto the column.
To check the stability of bilirubin PI, concentrations of bilirubin IXα, and EZ/ZE-bilirubins as well as Z-lumirubin after 1 and 24 hrs in the incubation medium were analysed by HPLC method (see above).

[4] = target: T1, human serum albumin (HSA); test: Characterization of albumin binding sites by circular dichroism (CD) spectroscopy with marker ligands
Excerpt: CD spectra were obtained using a J-810 spectropolarimeter (Jasco, Japan) and analyzed as described elsewhere. […] For determination of the subdomain for lumirubin binding two compounds were used, hemin and bilirubin, as marker ligands for subdomain IB and IIA, respectively.

T1 sequence (P02768 25-609): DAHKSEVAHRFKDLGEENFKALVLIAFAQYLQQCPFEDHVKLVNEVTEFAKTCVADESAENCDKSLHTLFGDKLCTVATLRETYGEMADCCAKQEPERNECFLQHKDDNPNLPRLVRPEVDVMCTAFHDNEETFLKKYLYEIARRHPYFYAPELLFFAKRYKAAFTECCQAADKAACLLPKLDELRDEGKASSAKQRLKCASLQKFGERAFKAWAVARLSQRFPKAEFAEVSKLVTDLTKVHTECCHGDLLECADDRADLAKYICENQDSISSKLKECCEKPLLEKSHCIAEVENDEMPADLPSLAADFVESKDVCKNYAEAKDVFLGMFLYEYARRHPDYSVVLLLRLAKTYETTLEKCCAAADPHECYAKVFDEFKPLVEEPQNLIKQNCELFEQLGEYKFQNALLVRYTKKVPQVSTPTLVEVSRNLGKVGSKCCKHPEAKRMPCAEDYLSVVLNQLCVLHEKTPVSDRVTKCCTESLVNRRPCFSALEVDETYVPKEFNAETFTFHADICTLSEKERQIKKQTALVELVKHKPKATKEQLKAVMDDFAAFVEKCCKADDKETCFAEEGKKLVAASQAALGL

Compound: C=CC1=C(C)/C(=C/c2[nH]c(Cc3[nH]c(/C=C4\NC(=O)C(C)=C4C=C)c(C)c3CCC(=O)O)c(CCC(=O)O)c2C)NC1=O [bilirubin, Z,Z-Bilirubin IXα]
Kd [1]: 5.56 nM
Ka, binding constant bilirubin-(HSA-biliverdin) ([1]; bilirubin binding to HSA in presence of biliverdin): (1.1±0.4)·10^8 M^-1
Ka, binding constant bilirubin-(HSA-gossypol) ([1]; bilirubin binding to HSA in presence of gossypol (displacer)): (1.4±0.2)·10^5 M^-1
Ka, binding constant bilirubin-(HSA-lumirubin) ([1]; bilirubin binding to HSA in presence of lumirubin): (8.7±1.3)·10^7 M^-1
Effect on cell viability, short-term exposure ([2]; 60 min exposure, data not shown): did not have any effect on cell viability
Effect on cell viability, 24 hr ([2]; 24 hr, bilirubin 24 μM, PI up to 30%, n = 7): significantly reduced
Effect on cell viability, 48 hr ([2]; 48 hr, bilirubin 24 μM, PI up to 30%, n = 4): significantly reduced
HMOX1 mRNA expression (HMOX1): 232.2 (197–240) ^* % of control
HMOX2 mRNA expression (HMOX2): 130.3 (129–166) ^* % of control
BLVRA mRNA expression (BLVRA): 142.9 (109–179) % of control
MRP1 mRNA expression (MRP1): 76.3 (71–90) % of control
MDR1 mRNA expression (MDR1): 54.9 (35–84) % of control
Cyclin D1 mRNA expression (Cyclin D1): 71.8 (64–157) % of control
Cyclin E mRNA expression (Cyclin E): 78.9 (50–126) % of control
Effect on HMOX activity (heme oxygenase (HMOX)): not translated onto increase of HMOX activity
Effect on cell cycle progression (SH-SY5Y cells): no effect on the cell cycle progression
Stability after 24 hrs in the incubation medium [3]: stable

Kd ([1]; ligand bound to HSA alone, fluorescence quenching, read-out: Ka, binding constant for the ligand-HSA complex): 1080 nM
Localization of binding site on HSA ([4]; marker ligands hemin (IB) and bilirubin (IIA), molar ratio 1/1/1): subdomain IB
Number of binding sites on HSA ([4]; pigment/HSA 1/1, 1.5 x 10^-5 mol/L, PBS pH 7.4): one binding site
Concentration remaining after 24 hrs in the incubation medium [3]: 31%
Compound: C=CC1=C(C)/C(=C/c2[nH]c(CC3=C(CCC(=O)O)C4(C)CC=C5C(=CC4=N3)NC(=O)C5C)c(CCC(=O)O)c2C)NC1=O (stereo not shown) [lumirubin, Z-Lumirubin IXα]
Effect on bilirubin binding to HSA (CD signal) ([4]; both bilirubin and hemin bound to HSA, molar ratio 1/1/1): moderately affects bilirubin binding to HSA
